Earlier results, collected in patent US20220409628A1, “18-MC FOR TREATING OBESITY” (Mind Medicine, Inc., priority 2021, published 2022).

Tests used:
rats [1] = conditions: unlimited access to sucrose (30%), chronic treatment 20 mg/kg i.p.
[2] = U.S. Pat. No. 6,780,871 to Glick, et al.
rats [3] = conditions: acute administration
[4] = in vivo
rats [5] = conditions: acute administration, 10-40 mg/kg i.p.
female rats = conditions: pretreatment 20 mg/kg i.p., ghrelin 1 μg lateral ventricle
male rats = conditions: repeated administration 20 mg/kg i.p.
[6] = system: extracellular dopamine in the nucleus accumbens; conditions: both 20 and 40 mg/kg, ghrelin 2 μg intraventral tegmental area

COCC[C@H]1CC2CN3CCc4c([nH]c5ccccc45)[C@](C(=O)OC)(C2)[C@H]13 [18-MC, 18-methoxycoronaridine]
consumption of sucrose (rats [1]): reduced consumption of sucrose | fat deposition (rats [1]): decreased fat deposition | food intake (rats [1]): not altering food intake | sucrose-induced increases in body weight (rats [1]): prevented sucrose-induced increases in body weight | self-administration of morphine, cocaine, methamphetamine, nicotine, and sucrose [2]: reducing self-administration | ad libitum ingestion of sucrose, saccharin, and saline (rats [3]; 10-40 mg/kg i.p.): decreased ad libitum ingestion | consumption of water when palatable fluids were not available (rats [3]; highest dose): reduced consumption of water | conditioned taste aversion to sucrose [4]: does not induce | operant responding for sucrose (rats [5]): reduced operant responding for sucrose | deposition of fat (ghrelin-treated rats): no effect | serum levels of glucose, triglycerides, and cholesterol (ghrelin-treated rats): no effect | ghrelin-induced increases in sucrose (5%) intake (female rats): blocked ghrelin-induced increases | weight gain (male rats; both sucrose-consuming and control animals): attenuated weight gain | food or fluid intake (male rats): without altering food or fluid intake | ghrelin-induced increases in extracellular dopamine in the nucleus accumbens [6]: prevented
